Test results published in paper PMC4192545, “Suramin Inhibits Hsp104 ATPase and Disaggregase Activity” (PLoS ONE, 2014).

Columns and labels:
Hsp104^WT = target: T1, Hsp104^WT (Saccharomyces cerevisiae, UniProt P31539); assay: Manual ATPase assay, Hsp104^WT; assay type: biochemical, yeast; conditions: for Normalized ATPase Activity: Figure 2B
T1 construct: made in house; host or cells: E. coli BL21-DE3 RIL
Description: Wild-type or mutant Hsp104 (0.25 µM monomer) in ATPase buffer (20 mM HEPES-KOH pH 7.4, 20 mM NaCl and 10 mM MgCl2) was incubated for 60 or 10 min at 25°C in the presence of ATP (1 mM) as noted. ATPase activity was assessed by the release of inorganic phosphate determined by using a malachite green phosphate detection kit (Innova).

Hsp104^T317A = target: T2, Hsp104^T317A (Saccharomyces cerevisiae, UniProt P31539, T317A); assay: Luciferase reactivation, Hsp104^T317A; assay type: biochemical, yeast; conditions: ATP:ATPγS 1:1
T2 construct: made in house; host or cells: E. coli BL21-DE3 RIL
T2 sequence (P31539 whole entry T317A): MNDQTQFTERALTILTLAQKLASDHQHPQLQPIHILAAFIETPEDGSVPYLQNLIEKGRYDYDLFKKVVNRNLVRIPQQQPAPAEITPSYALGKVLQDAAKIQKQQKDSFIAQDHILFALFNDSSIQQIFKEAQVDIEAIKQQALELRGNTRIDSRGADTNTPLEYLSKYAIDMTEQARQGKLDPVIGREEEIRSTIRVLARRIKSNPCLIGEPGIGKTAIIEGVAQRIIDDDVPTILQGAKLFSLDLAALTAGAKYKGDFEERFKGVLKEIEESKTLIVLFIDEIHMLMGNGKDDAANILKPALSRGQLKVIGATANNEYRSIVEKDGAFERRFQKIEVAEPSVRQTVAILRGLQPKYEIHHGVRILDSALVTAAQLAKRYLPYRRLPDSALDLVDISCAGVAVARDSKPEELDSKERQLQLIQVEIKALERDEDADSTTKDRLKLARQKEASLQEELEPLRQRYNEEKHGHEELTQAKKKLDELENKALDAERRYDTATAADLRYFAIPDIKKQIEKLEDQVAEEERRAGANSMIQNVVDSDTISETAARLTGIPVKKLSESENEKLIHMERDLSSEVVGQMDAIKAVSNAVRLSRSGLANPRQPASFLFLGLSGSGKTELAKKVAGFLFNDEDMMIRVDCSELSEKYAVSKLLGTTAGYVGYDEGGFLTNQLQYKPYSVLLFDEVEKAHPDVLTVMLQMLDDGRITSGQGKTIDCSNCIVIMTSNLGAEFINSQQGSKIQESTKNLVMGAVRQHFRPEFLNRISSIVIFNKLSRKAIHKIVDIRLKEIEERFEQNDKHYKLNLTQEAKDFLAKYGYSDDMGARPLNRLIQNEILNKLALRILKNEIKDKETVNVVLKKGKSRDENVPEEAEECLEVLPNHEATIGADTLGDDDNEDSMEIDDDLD
Description: (§1) Luciferase reactivation was performed as described, [37]. To assemble aggregates, firefly luciferase (50 µM) in luciferase refolding buffer (LRB, 25 mM HEPES-KOH, 7.4, 150 mM KAOc, 10 mM MgAOc, 10 mM DTT) with 6 M urea was incubated at 30°C for 20 min. Luciferase was then rapidly diluted 100-fold into LRB, divided into 100 µL aliquots, snap frozen in liquid N2, and stored at −80°C. For reactivation assays, aggregated luciferase (50 nM) was incubated with Hsp104 (1 µM hexamer), plus 2.6 mM ATPγS, 2.6 mM ATP and an ATP regeneration system (1 mM creatine phosphate, 0.25 µM creatine kinase (Roche Applied Science)) for 90 minutes at 25°C. Luciferase assay system was purchased from Promega. Luciferase activity was assessed by luminescence measured on a Safire^2 microplate reader (Tecan, Männedorf, Switzerland). The half maximal inhibitory concentration (IC50) was calculating by fitting luciferase-refolding data at different Suramin concentrations with Prism (GraphPad Software, Inc., La Jolla, CA).
(§2) Figure 7 Hsp104 variants respond differently to Suramin than Hsp104^WT. (A) Hsp104 variants (0.25 µM monomer) were incubated for 10 min with ATP (1 mM) and varying concentrations of Suramin. The amount of Pi produced was measured by absorbance at 635 nm. Absorbance values were normalized to the absorbance produced by each Hsp104 variant in the absence of inhibitor. Values represent mean ±S.D. (n = 6). (B) Urea-denatured firefly luciferase aggregates were incubated for 90 min at 25°C with Hsp104 variants (1 µM hexamer) plus 1∶1 mixtures of ATP and ATPγS (or ATP alone) and varying concentrations of Suramin. Luciferase reactivation was then determined and normalized to untreated disaggregase activity for each variant in the presence of ATPγS: ATP (or ATP alone). 1∶1 mixtures of ATP and ATPγS were used for Hsp104^WT and Hsp104^T317A, while ATP alone was used for Hsp104^A503V and Hsp104^N728A. Values represent mean ±S.D. (n = 6–12).

[1] = target: T3, Quantilum recombinant luciferase (Photinus pyralis, UniProt P08659); assay: Luciferase activity determination (native luciferase control); assay type: biochemical; conditions: Suramin 100 µM, luciferase 50 nM; data not shown
T3 construct: purchased Promega (Madison, WI)
T3 sequence (P08659 whole entry): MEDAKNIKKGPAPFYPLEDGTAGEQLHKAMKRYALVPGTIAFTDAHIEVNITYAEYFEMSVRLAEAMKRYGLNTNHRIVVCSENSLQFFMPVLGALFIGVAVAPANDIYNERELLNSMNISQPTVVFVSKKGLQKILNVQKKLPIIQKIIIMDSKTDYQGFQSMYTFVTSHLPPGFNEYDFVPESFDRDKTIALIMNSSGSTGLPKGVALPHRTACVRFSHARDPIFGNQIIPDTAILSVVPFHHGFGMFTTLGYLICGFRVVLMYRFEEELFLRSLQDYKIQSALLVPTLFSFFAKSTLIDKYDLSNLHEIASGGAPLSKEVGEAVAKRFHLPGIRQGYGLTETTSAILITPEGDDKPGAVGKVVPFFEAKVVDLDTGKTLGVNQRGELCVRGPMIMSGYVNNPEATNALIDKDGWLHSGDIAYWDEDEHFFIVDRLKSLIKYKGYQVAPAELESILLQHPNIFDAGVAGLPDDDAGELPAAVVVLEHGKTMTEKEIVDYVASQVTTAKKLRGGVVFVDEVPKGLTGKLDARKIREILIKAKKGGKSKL
Description: Quantilum recombinant luciferase (native) was diluted to 5000, 500, 50, 5 and 0.5 nM in the presence or absence of Suramin. Dilutions were mixed with luciferase assay system (Promega). Luciferase activity was assessed by luminescence measured on a Safire^2 microplate reader.

Hsp104 = target: T4, Hsp104 (Saccharomyces cerevisiae, UniProt P31539); assay: Gel filtration of Hsp104 (hexamerization); design: species or system yeast; conditions: Suramin 100 µM, with or without ATP 1 mM
T4 construct: made in house; host or cells: E. coli BL21-DE3 RIL
T4 sequence (P31539 whole entry): as the sequence (P31539 whole entry T317A) above, with A317T counted along it
Description: Hsp104 was diluted into ATPase buffer with or without Suramin (100 µM) in the presence or absence of ATP (1 mM). The Hsp104 concentration was adjusted to 120 µM monomer and 20 µL of sample were fractionated by a Superdex 200 10/300 column (GE Healthcare Life Sciences, Piscataway, NJ) at room temperature and at a flow rate of 0.5 mL per minute in line with an Optilab T-rEX Refractive Interferometer (Wyatt Technologies, Santa Barbara, CA). Molecular weight markers were purchased from Bio-Rad Laboratories (Hercules, CA).

Δpdr5 yeast = assay: Thermotolerance of Δpdr5 yeast; assay type: cell-based; conditions: Suramin 100 µM, data not shown
Hsp104^N728A = target: T5, Hsp104^N728A (Saccharomyces cerevisiae, UniProt P31539, N728A); assay: biochemical; assay type: biochemical, yeast; conditions: for Hsp104^N728A refolding activity: ATP alone
T5 construct: made in house; host or cells: E. coli BL21-DE3 RIL
T5 sequence (P31539 whole entry N728A): as the sequence (P31539 whole entry T317A) above, with A317T, N728A counted along it
Description: as §1
as §2, with “(A)” for “Figure 7 Hsp104 variants respond differently to Suramin than Hsp104^WT. (A)”

Hsp104^A503V = target: T6, Hsp104^A503V (Saccharomyces cerevisiae, UniProt P31539, A503V); assay: biochemical; assay type: biochemical, yeast
T6 construct: made in house; host or cells: E. coli BL21-DE3 RIL
T6 sequence (P31539 whole entry A503V): as the sequence (P31539 whole entry T317A) above, with A317T, A503V counted along it
Description: as §1
as §2, with “(A)” for “Figure 7 Hsp104 variants respond differently to Suramin than Hsp104^WT. (A)”

T1 sequence (P31539 whole entry): as the sequence (P31539 whole entry T317A) above, with A317T counted along it

## Cc1ccc(C(=O)Nc2ccc(S(=O)(=O)O)c3cc(S(=O)(=O)O)cc(S(=O)(=O)O)c23)cc1NC(=O)c1cccc(NC(=O)Nc2cccc(C(=O)Nc3cc(C(=O)Nc4ccc(S(=O)(=O)O)c5cc(S(=O)(=O)O)cc(S(=O)(=O)O)c45)ccc3C)c2)c1 [Suramin]
Hsp104^WT; 10 min reaction, ATP 1 mM
  IC50: ~3.39 µM
Hsp104^WT; 60 min, ATP 1 mM, varying concentrations, Figure 2A
  Effect on Hsp104 ATPase activity (Pi produced), manual assay: greatly diminished the amount of Pi produced in a concentration-dependent manner
Hsp104^WT; Hsp104 WT
  Inhibitor concentration of maximal ATPase inhibition: 25 µM
Hsp104^WT; Suramin 1 µM, 10 min, ATP 1 mM
  Normalized ATPase Activity: 1.08
Hsp104^WT; Suramin 5 µM, 10 min, ATP 1 mM
  Normalized ATPase Activity: 0.62
Hsp104^WT; Suramin 10 µM, 10 min, ATP 1 mM
  Normalized ATPase Activity: 0.37
Hsp104^WT; Suramin 25 µM, 10 min, ATP 1 mM
  Normalized ATPase Activity: 0.27
Hsp104^WT; Suramin 25 µM, 10 min, read-out: Hsp104^WT ATPase activity relative to uninhibited Hsp104
  activity at 25 µM: 30%
Hsp104^WT; Suramin 50 µM, 10 min, ATP 1 mM
  Normalized ATPase Activity: 0.29
Hsp104^WT; Suramin 100 µM, 10 min
  inhibition at 100 µM: > 60%
Hsp104^WT; Suramin 100 µM, 10 min, ATP 1 mM
  Normalized ATPase Activity: 0.33
Hsp104^WT; Suramin 100 µM, 10 min, read-out: Hsp104^WT ATPase activity relative to uninhibited protein
  activity at 100 µM: ~35%
Hsp104^WT; Suramin 250 µM, 10 min, ATP 1 mM
  Normalized ATPase Activity: 0.37
Hsp104^T317A; Suramin 1 µM
  Hsp104^T317A refolding activity: approximately 75%
Hsp104^T317A; Suramin 50 µM
  Hsp104^T317A refolding activity: approximately 8%
Hsp104^T317A; based on refolding data
  IC50: ~20.5 µM
[1]
  Effect on luciferase activity itself: did not inhibit luciferase activity
Hsp104
  Effect on Hsp104 hexamerization (gel filtration elution profile): does not interfere with hexamerization
Δpdr5 yeast
  Effect on thermotolerance: impaired neither
Hsp104^N728A
  IC50: ~92.4 µM
Hsp104^N728A; Suramin 1 µM
  Hsp104^N728A refolding activity: ~100%
Hsp104^N728A; Suramin 50 µM
  Hsp104^N728A refolding activity: ~36%
Hsp104^A503V
  IC50: ~0.61 µM
Hsp104^A503V; Suramin 1 µM, ATP alone
  Hsp104^A503V refolding activity: less than 50%
